{
  "source": "PubChem BioAssay AID743350",
  "about": "(Broad Institute, 2014)",
  "note": "Active and inactive are the calls of the source. How the calls were made is not given here.",
  "data": [
    {"system": "M. tuberculosis wild type, biotin-free medium, growth", "assay": "growth inhibition of wild-type M. tuberculosis, biotin-free medium, single point, dry powder (AID 743350)", "values": [
      {"smiles": "COc1cccc(NC(=O)N2CC[C@@H]3[C@@H](CO)N(C)c4ccc(-c5cccc(F)c5)cc4[C@@H]32)c1", "IC90": "> 50 µM (inactive)"},
      {"smiles": "COC(=O)CCCCCCC(=O)N1CC[C@@H]2[C@@H](CO)N(C)c3ccc(-c4cccc(F)c4)cc3[C@@H]21", "IC90": "> 50 µM (inactive)"},
      {"smiles": "COc1ccc(NC(=O)N2CC[C@@H]3[C@@H](CO)N(C)c4ccc(-c5cccc(F)c5)cc4[C@@H]32)cc1", "IC90": "> 50 µM (inactive)"},
      {"smiles": "CN1c2ccc(-c3cccc(F)c3)cc2[C@@H]2[C@@H](CCN2C(=O)c2ccc3c(c2)OCO3)[C@@H]1CO", "IC90": "> 50 µM (inactive)"},
      {"smiles": "CCCNC(=O)N1CC[C@@H]2[C@@H](CO)N(C)c3ccc(-c4ccc(F)cc4)cc3[C@@H]21", "IC90": "> 50 µM (inactive)"},
      {"smiles": "CN1c2ccc(-c3ccc(F)cc3)cc2[C@H]2[C@H](CCN2C(=O)Cc2cccnc2)[C@H]1CO", "IC90": "> 50 µM (inactive)"},
      {"smiles": "CC(=O)c1ccc(N2CCN(C(=O)c3ccc4c(c3)OCO4)[C@H](C)C2)cc1", "IC90": "27.3 µM"},
      {"smiles": "CN1c2ccc(-c3ccc(F)cc3)cc2[C@H]2[C@H](CCN2C(=O)Nc2cc(F)ccc2F)[C@H]1CO", "IC90": "> 50 µM (inactive)"},
      {"smiles": "CCCCCCCC(=O)N1CC[C@@H]2[C@@H](CO)N(C)c3ccc(-c4cccc(F)c4)cc3[C@@H]21", "IC90": "> 50 µM (inactive)"},
      {"smiles": "COc1ccccc1C(=O)N1CCN(c2ccc(C(C)=O)cc2)CC1", "IC90": "> 50 µM (inactive)"},
      {"smiles": "CC(=O)c1ccc(N2CCN(C(=O)c3ccccc3F)CC2)cc1", "IC90": "> 50 µM (inactive)"},
      {"smiles": "CC(C)NC(=O)N1CC[C@@H]2[C@@H](CO)N(C)c3ccc(-c4cccc(F)c4)cc3[C@@H]21", "IC90": "> 50 µM (inactive)"},
      {"smiles": "CN1c2ccc(-c3ccc(F)cc3)cc2[C@H]2[C@H](CCN2C(=O)Nc2ccc(F)cc2)[C@H]1CO", "IC90": "> 50 µM (inactive)"},
      {"smiles": "CN1c2ccc(-c3cccc(F)c3)cc2[C@H]2[C@H](CCN2C(=O)CCCCCCN)[C@H]1CO", "IC90": "> 50 µM (inactive)"},
      {"smiles": "CN1c2ccc(-c3cccc(F)c3)cc2[C@H]2[C@H](CCN2C(=O)c2ccc3c(c2)OCO3)[C@@H]1CO", "IC90": "> 50 µM (inactive)"},
      {"smiles": "CN1c2ccc(-c3cccc(F)c3)cc2[C@H]2[C@H](CCN2C(=O)Cc2cccnc2)[C@H]1CO", "IC90": "> 50 µM (inactive)"},
      {"smiles": "CC(=O)c1ccc(NCCNC(=O)c2ccc3c(c2)OCO3)cc1", "IC90": "> 50 µM (inactive)"},
      {"smiles": "CNS(=O)(=O)c1ccc(N2CCN(C(=O)c3ccc4c(c3)OCO4)CC2)cc1", "IC90": "> 50 µM (inactive)"},
      {"smiles": "COc1ccc(NC(=O)N2CC[C@@H]3[C@@H](CO)N(C)c4ccc(-c5ccc(F)cc5)cc4[C@@H]32)cc1", "IC90": "> 50 µM (inactive)"},
      {"smiles": "CC(=O)c1ccc(N2CCN(C(=O)c3ccccc3Cl)CC2)cc1", "IC90": "> 50 µM (inactive)"},
      {"smiles": "CCC(=O)N1CC[C@@H]2[C@@H](CO)N(C)c3ccc(-c4ccc(F)cc4)cc3[C@@H]21", "IC90": "> 50 µM (inactive)"},
      {"smiles": "CC(=O)c1ccc(N2CC3(CN(C(=O)c4ccc5c(c4)OCO5)C3)C2)cc1", "IC90": "> 50 µM (inactive)"},
      {"smiles": "COc1ccccc1NC(=O)N1CC[C@@H]2[C@@H](CO)N(C)c3ccc(-c4ccc(F)cc4)cc3[C@@H]21", "IC90": "> 50 µM (inactive)"},
      {"smiles": "CN1c2ccc(-c3cccc(F)c3)cc2[C@H]2[C@H](CCN2C(=O)Nc2ccccc2F)[C@H]1CO", "IC90": "> 50 µM (inactive)"},
      {"smiles": "CN(C)C(=O)c1ccc(N2CCN(C(=O)c3ccc4c(c3)OCO4)CC2)cc1", "IC90": "> 50 µM (inactive)"},
      {"smiles": "COCC(=O)N1CC[C@@H]2[C@@H](CO)N(C)c3ccc(-c4cccc(F)c4)cc3[C@@H]21", "IC90": "> 50 µM (inactive)"},
      {"smiles": "CC(C)NC(=O)N1CC[C@@H]2[C@@H](CO)N(C)c3ccc(-c4ccc(F)cc4)cc3[C@@H]21", "IC90": "> 50 µM (inactive)"},
      {"smiles": "CN1c2ccc(-c3cccc(F)c3)cc2[C@@H]2[C@@H](CCN2C(=O)c2ccc3c(c2)OCO3)[C@H]1CO", "IC90": "> 50 µM (inactive)"},
      {"smiles": "COc1ccccc1NC(=O)N1CC[C@@H]2[C@@H](CO)N(C)c3ccc(-c4cccc(F)c4)cc3[C@@H]21", "IC90": "> 50 µM (inactive)"},
      {"smiles": "CC(=O)c1ccc(N2CCN(C(=O)c3ccc4c(c3)OCO4)CC2)cc1", "IC90": "39.7 µM"},
      {"smiles": "CNC(=O)c1ccc(N2CCN(C(=O)c3ccc4c(c3)OCO4)CC2)cc1", "IC90": "> 50 µM (inactive)"},
      {"smiles": "CN1c2ccc(-c3cccc(F)c3)cc2[C@H]2[C@H](CCN2C(=O)CCCCCCC(=O)O)[C@H]1CO", "IC90": "> 50 µM (inactive)"},
      {"smiles": "CN1c2ccc(-c3ccc(F)cc3)cc2[C@H]2[C@H](CCN2C(=O)Cc2ccccn2)[C@H]1CO", "IC90": "> 50 µM (inactive)"},
      {"smiles": "CN1c2ccc(-c3cccc(F)c3)cc2[C@H]2[C@H](CCN2C(=O)Cc2ccccc2)[C@H]1CO", "IC90": "> 50 µM (inactive)"}
    ]}
  ]
}
